Assay results as given in PubChem BioAssay (NCI).
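Cells were grown in 96-well plates and exposed to each compound for 48 hours at five concentrations; endpoints were interpolated linearly between bracketing concentrations, or set to the highest concentration if not reached. At the TGI there is no net growth.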

Experiments:
Experiment in all cases: NCI-60 cell line screen, 48 h
786-0 renal = tested on: 786-0 renal
A498 renal = tested on: A498 renal
A549 NSCLC = tested on: A549 NSCLC
ACHN renal = tested on: ACHN renal
CAKI-1 renal = tested on: CAKI-1 renal
CCRF-CEM leukemia = tested on: CCRF-CEM leukemia
COLO 205 colon = tested on: COLO 205 colon
DLD-1 colon = tested on: DLD-1 colon
DMS 114 small cell lung = tested on: DMS 114 small cell lung
DMS 273 small cell lung = tested on: DMS 273 small cell lung
EKVX NSCLC = tested on: EKVX NSCLC
HCC-2998 colon = tested on: HCC-2998 colon
HCT-116 colon = tested on: HCT-116 colon
HCT-15 colon = tested on: HCT-15 colon
HL-60(TB) leukemia = tested on: HL-60(TB) leukemia
HOP-18 NSCLC = tested on: HOP-18 NSCLC
HOP-62 NSCLC = tested on: HOP-62 NSCLC
HOP-92 NSCLC = tested on: HOP-92 NSCLC
HT29 colon = tested on: HT29 colon
IGROV1 ovarian = tested on: IGROV1 ovarian
K-562 leukemia = tested on: K-562 leukemia
KM12 colon = tested on: KM12 colon
KM20L2 colon = tested on: KM20L2 colon
LOX IMVI melanoma = tested on: LOX IMVI melanoma
LXFL 529 NSCLC = tested on: LXFL 529 NSCLC
M14 melanoma = tested on: M14 melanoma
M19-MEL melanoma = tested on: M19-MEL melanoma
MALME-3M melanoma = tested on: MALME-3M melanoma
MOLT-4 leukemia = tested on: MOLT-4 leukemia
NCI-H226 lung = tested on: NCI-H226 lung
NCI-H23 lung = tested on: NCI-H23 lung
NCI-H460 lung = tested on: NCI-H460 lung
NCI-H522 lung = tested on: NCI-H522 lung
OVCAR-3 ovarian = tested on: OVCAR-3 ovarian
OVCAR-4 ovarian = tested on: OVCAR-4 ovarian
OVCAR-5 ovarian = tested on: OVCAR-5 ovarian
OVCAR-8 ovarian = tested on: OVCAR-8 ovarian
RPMI-8226 leukemia = tested on: RPMI-8226 leukemia
RXF 393 renal = tested on: RXF 393 renal
SF-268 CNS = tested on: SF-268 CNS
SF-295 CNS = tested on: SF-295 CNS
SF-539 CNS = tested on: SF-539 CNS
SK-MEL-2 melanoma = tested on: SK-MEL-2 melanoma
SK-MEL-28 melanoma = tested on: SK-MEL-28 melanoma
SK-MEL-5 melanoma = tested on: SK-MEL-5 melanoma
SK-OV-3 ovarian = tested on: SK-OV-3 ovarian
SN12C renal = tested on: SN12C renal
SNB-19 CNS = tested on: SNB-19 CNS
SNB-75 CNS = tested on: SNB-75 CNS
SNB-78 CNS = tested on: SNB-78 CNS
SW-620 colon = tested on: SW-620 colon
TK-10 renal = tested on: TK-10 renal
U251 CNS = tested on: U251 CNS
UACC-257 melanoma = tested on: UACC-257 melanoma
UACC-62 melanoma = tested on: UACC-62 melanoma
UO-31 renal = tested on: UO-31 renal

SMILES: COc1ccc(C2=C3c4cc(OC)c(OC)cc4CCN3C(=S)SS2)cc1OC
- TGI (786-0 renal): > 100 µM
- TGI (A498 renal): > 100 µM
- TGI (A549 NSCLC): > 100 µM
- TGI (ACHN renal): > 100 µM
- TGI (CAKI-1 renal): > 100 µM
- TGI (CCRF-CEM leukemia): > 100 µM
- TGI (COLO 205 colon): > 100 µM
- TGI (DLD-1 colon): > 100 µM
- TGI (DMS 114 small cell lung): > 100 µM
- TGI (DMS 273 small cell lung): > 100 µM
- TGI (EKVX NSCLC): > 100 µM
- TGI (HCC-2998 colon): > 100 µM
- TGI (HCT-116 colon): > 100 µM
- TGI (HCT-15 colon): > 100 µM
- TGI (HL-60(TB) leukemia): > 100 µM
- TGI (HOP-18 NSCLC): > 100 µM
- TGI (HOP-62 NSCLC): > 100 µM
- TGI (HOP-92 NSCLC): > 100 µM
- TGI (HT29 colon): > 100 µM
- TGI (IGROV1 ovarian): > 100 µM
- TGI (K-562 leukemia): > 100 µM
- TGI (KM12 colon): > 100 µM
- TGI (KM20L2 colon): > 100 µM
- TGI (LOX IMVI melanoma): > 100 µM
- TGI (LXFL 529 NSCLC): > 100 µM
- TGI (M14 melanoma): > 100 µM
- TGI (M19-MEL melanoma): > 100 µM
- TGI (MALME-3M melanoma): 97.6 µM
- TGI (MOLT-4 leukemia): > 100 µM
- TGI (NCI-H226 lung): > 100 µM
- TGI (NCI-H23 lung): > 100 µM
- TGI (NCI-H460 lung): > 100 µM
- TGI (NCI-H522 lung): > 100 µM
- TGI (OVCAR-3 ovarian): > 100 µM
- TGI (OVCAR-4 ovarian): > 100 µM
- TGI (OVCAR-5 ovarian): > 100 µM
- TGI (OVCAR-8 ovarian): > 100 µM
- TGI (RPMI-8226 leukemia): > 100 µM
- TGI (RXF 393 renal): > 100 µM
- TGI (SF-268 CNS): > 100 µM
- TGI (SF-295 CNS): > 100 µM
- TGI (SF-539 CNS): > 100 µM
- TGI (SK-MEL-2 melanoma): > 100 µM
- TGI (SK-MEL-28 melanoma): > 100 µM
- TGI (SK-MEL-5 melanoma): > 100 µM
- TGI (SK-OV-3 ovarian): > 100 µM
- TGI (SN12C renal): > 100 µM
- TGI (SNB-19 CNS): > 100 µM
- TGI (SNB-75 CNS): > 100 µM
- TGI (SNB-78 CNS): > 100 µM
- TGI (SW-620 colon): > 100 µM
- TGI (TK-10 renal): > 100 µM
- TGI (U251 CNS): > 100 µM
- TGI (UACC-257 melanoma): > 100 µM
- TGI (UACC-62 melanoma): > 100 µM
- TGI (UO-31 renal): > 100 µM
